{"source": "paper PMC9182141", "about": "“Assay Development and Identification of the First Plasmodium falciparum 7,8-dihydro-6-hydroxymethylpterin-pyrophosphokinase Inhibitors” (Molecules, 2022)", "key": {"PfHPPK": {"tested_on": "PfHPPK", "set-up": "method as in PMID 19631695", "conditions": "substrate of monofunctional PfHPPK; cited from earlier work"}, "PfHPPK-GFP [1]": {"target": "T1, PfHPPK-GFP (Plasmodium falciparum, UniProt Q25704)", "T1 sequence (Q25704 entry or part of it)": "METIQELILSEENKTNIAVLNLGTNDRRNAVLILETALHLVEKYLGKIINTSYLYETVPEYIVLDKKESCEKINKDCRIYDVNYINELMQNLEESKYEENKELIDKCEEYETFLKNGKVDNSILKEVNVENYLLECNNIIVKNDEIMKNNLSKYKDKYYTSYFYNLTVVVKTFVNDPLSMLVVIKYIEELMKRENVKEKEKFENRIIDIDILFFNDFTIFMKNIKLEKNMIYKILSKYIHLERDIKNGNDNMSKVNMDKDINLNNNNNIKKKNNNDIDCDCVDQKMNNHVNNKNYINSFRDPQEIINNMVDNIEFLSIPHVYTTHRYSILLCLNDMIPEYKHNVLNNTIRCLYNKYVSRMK", "assay": "DSF-GTP (GFP-tagged protein differential scanning fluorimetry) thermal shift", "assay_type": "binding", "procedure": "In a preliminary screening experiment, buffer conditions were investigated, searching for conditions that provide the largest thermal shift in the presence of 1 mM ATP. DSF curves were recorded under a total of 17 different conditions, with variations in buffer nature and pH, salts nature and concentration, effect of reducing agent, MgSO4 and glycerol.\nFrom there, protein binding properties of the hit compounds were assessed experimentally using the developed DSF-GTP assay. A total of 54 compounds were tested, including virtual screening hits and closely related structures. According to our protocol, each compound was mixed with PfHPPK-GFP and submitted to a temperature gradient from 30 °C to 90 °C at 1 °C/min while GFP fluorescence was recorded. The first derivative of the resulting curve was used to determine the melting temperature (Tm). For each set of experiments, a negative control containing DMSO was added, and ΔTm values were calculated for each compound vs. the DMSO control. […] Two compound families were identified as the most promising by our DSF-GTP assay: 5-phenylazo-2,4-diaminopyrimidines (series 1) and phenyltriazolyl-2-amino-4-pyrimidinone (series 2). In series 2, linkers of different lengths that separate the phenyl triazolyl and the pyrimidine moieties were included.\nIn a typical DSF-GTP experiment, a master mix containing buffer and PfHPPK-GFP was prepared in a microcentrifuge tube, corresponding to a final protein concentration of 20 μg/mL. Ligands of interest were dispensed in low-profile 96-well plates (Bio-Rad) to 1 mM final concentration, and the master mix was dispensed to a final volume of 50 μL per well. In these conditions, DMSO content was maintained constant at 2%. The microplate was sealed with adhesive film and mixed by shaking for 2 min at 800 rpm at RT. The microplate was then submitted to a DSF run on a CFX96 RT-PCR (Bio-Rad, Hercules, CA, USA). DSF program was designed by starting with a 3 min equilibration phase at 30 °C, followed by a temperature gradient of 1 °C/min until 90 °C, recording fluorescence every 0.5 °C. Fluorescence was recorded using the FAM channel (λex = 450–490 nm, λem = 510–530 nm). Curves were fitted using the Precision Melt Analysis software (Bio-Rad)."}, "PfHPPK-GFP [2]": {"target": "T1, PfHPPK-GFP", "assay": "KinaseGlo enzyme inhibition assay", "assay_type": "biochemical", "conditions": "dose-response inhibition, read-out: IC50 against the enzyme"}, "[3]": {"assay": "Metabolic stability in human liver microsomes", "conditions": "human, liver microsomes", "procedure": "(§1) Intrinsic clearance was also measured in both human and rat liver microsomes in order to assess sensitivity to metabolic degradation.\n(§2) Metabolic stability of test compounds was determined in human and rat liver microsomes. The assay was adapted from a previously published method. Briefly, the test compounds were mixed with liver microsomes, and the metabolic reactions were initiated by the addition of NADPH. Acetonitrile containing an internal standard (labetalol) was added at 0, 5, 10, 30, and 60 min to stop the reactions. Samples were processed, and the remaining compounds in the reactions were detected using a LC-MS/MS. Distribution coefficient, solubility and polar surface area were predicted using Marvin software. Partition coefficient was predicted using ACD/Labs software."}, "[4]": {"tested_on": "KB cell line (human epithelial carcinoma cells)", "assay": "Cytotoxicity, sulforhodamine B assay, KB cells", "assay_type": "cell-based", "conditions": "72 h, when no IC50 could be determined, highest tested concentration noted"}, "[5]": {"tested_on": "Plasmodium falciparum TM4/8.2 (drug sensitive)", "assay": "Antimalarial activity, [3H]-hypoxanthine incorporation assay, TM4/8.2", "assay_type": "cell-based", "conditions": "P. falciparum TM4/8.2 (drug sensitive), when no IC50 could be determined, highest tested concentration noted", "procedure": "(§3) Finally, the various hit compounds were tested for their antimalarial activity against P. falciparum TM4/8.2 [26] and V1/S [27] strains. Parasite cultures were treated with test compounds at different concentrations, and antimalarial activity was measured using [3H]-hypoxanthine incorporation assay, according to our previously reported protocol. […] IC50 values could not be measured for other compounds. At this stage, there is no explanation for the difference in antiparasitic activity observed between TM4/8.2 and V1/S strains, and more investigations would be needed to conclude on this effect.\n(§4) Compounds were tested for their antimalarial activity against P. falciparum TM4/8.2 [26] and V1/S [27] strains according to our previously reported protocol. In brief, parasite strains were maintained continuously in human erythrocytes in RPMI1640 supplemented with 25 mM HEPES pH 7.4, 0.2% NaHCO3, 40 µg/mL gentamicin and 8% human serum at 37 °C under 3% CO2. For in vitro antimalarial assay, parasite was treated with serial dilutions of the inhibitors, and parasite survival was determined using a modified microdilution radioisotope technique."}, "[6]": {"assay": "Metabolic stability in rat liver microsomes", "conditions": "rat, liver microsomes", "procedure": "as §1, §2"}, "PfHPPK-GFP [7]": {"target": "T1, PfHPPK-GFP", "assay": "KinaseGlo enzyme inhibition assay", "assay_type": "biochemical", "conditions": "1 mM compound, 10 μM HMDP and 10 μM ATP, 20 min at RT; read-out: Inhib. at 1 mM (%)", "procedure": "For all the compounds displaying a measurable change of Tm, PfHPPK inhibition was recorded at 10 μM HMDP and ATP and 1 mM compound using the KinaseGlo assay. These conditions were chosen to be in the reported Km range for both HMDP and ATP substrates, enabling detection of both competitive and uncompetitive inhibitors. Compounds were incubated with HMDP, ATP and HPPK-GFP for 20 min at RT, followed by addition of the KinaseGlo reagent. After 10 min equilibration, luminescence was recorded, which directly reflects the quantity of ATP left in solution at the end of the reaction. Percentages of inhibition were calculated based on a DMSO positive control and a negative control lacking HPPK-GFP. Compounds structures, ΔTm and levels of inhibition appear in Table 1 and Table 2.\nPfHPPK-GFP inhibition assay was carried using the KinaseGlo Plus kit (Promega, Madison, WI, USA). In a black 96-well plate were dispensed test compounds (1 μL of 50 mM DMSO stock), master mix (100 mM Tris pH 9, 10 mM β-mercapto ethanol, 10 mM MgSO4, 0.01% w/v BSA, 10 μM HMDP and 10 μM ATP). Reaction was initiated by addition of 2 μg of enzyme, reaching a total reaction volume of 50 μL, and reaction was allowed to proceed for 20 min at RT shaking at 300 rpm. Reaction was then quenched by addition of 50 μL KinaseGlo reagent and allowed to equilibrate for 10 min at RT shaking at 300 rpm. Luminescence was recorded on a Biotek Synergy H1 plate reader (Agilent, Santa Clara, CA, USA) using an integration time of 1 s per well. Percentage of inhibition was calculated related to a positive control experiment (no enzyme added) and a negative control experiment (no inhibitor added)."}, "[8]": {"tested_on": "Plasmodium falciparum V1/S (drug resistant)", "assay": "Antimalarial activity, [3H]-hypoxanthine incorporation assay, V1/S", "assay_type": "cell-based", "conditions": "Plasmodium falciparum, P. falciparum V1/S (drug resistant); when no IC50 could be determined, highest tested concentration noted", "procedure": "as §3, §4"}, "[9]": {"tested_on": "Vero cell line (African green monkey kidney cells)", "assay": "Cytotoxicity, sulforhodamine B assay, Vero cells", "assay_type": "cell-based", "conditions": "Chlorocebus sabaeus, 72 h, when no IC50 could be determined, highest tested concentration noted"}}, "data": [{"compound": "Nc1ncnc2c1ncn2[C@@H]1O[C@H](COP(=O)(O)OP(=O)(O)OP(=O)(O)O)[C@@H](O)[C@H]1O", "note": "[ATP]", "values": [{"measurement": "Km", "setting": "PfHPPK", "value": 13.2, "unit": "µM"}, {"measurement": "Tm", "setting": "PfHPPK-GFP [1]; PfHPPK-GFP in optimal buffer in the presence of 1 mM ATP (apo form 81 °C)", "value": 80, "unit": "°C"}]}, {"compound": "CCc1nc(N)[nH]c(=O)c1CCCc1cn(-c2cccc(C(=O)O)c2)nn1", "note": "[Compound 14, 2-Amino-6-ethyl-5-(3-(1-(3-(carboxy)phenyl)-1H-1,2,3-triazol-4-yl)propyl)pyrimidin-4(3H)-one]", "values": [{"measurement": "IC50", "setting": "PfHPPK-GFP [2]", "value": "814 ± 47", "unit": "µM"}, {"measurement": "microsomal CLint", "setting": "[3]", "value": 4.88, "unit": "µL/min/mg"}, {"measurement": "IC50", "setting": "[4]", "value": "> 50", "unit": "µM"}, {"measurement": "IC50", "setting": "[5]", "value": "> 50", "unit": "µM"}, {"measurement": "microsomal CLint", "setting": "[6]", "value": 7.05, "unit": "µL/min/mg"}, {"measurement": "inhibition at 1000 µM", "setting": "PfHPPK-GFP [7]", "value": "42.8 ± 5.5", "unit": "%"}, {"measurement": "ΔTm at 1000 µM", "setting": "PfHPPK-GFP [1]; read-out: ΔTm (°C)", "value": "-1.2 ± 0.3", "unit": "°C"}, {"measurement": "IC50", "setting": "[8]", "value": "> 50", "unit": "µM"}, {"measurement": "IC50", "setting": "[9]", "value": "> 50", "unit": "µM"}]}]}
